Source: patent EP1948196B1, “USE OF TETRAORGANOSILICON COMPOUNDS” (Salama, Zoser B., priority 2005, dated 2007)
Numbered stars: 1 amine (or outer) side, 2 acyl side, 3 side chain; on linkers, the order of the positions; unused ones are H or OH. Bridge positions count the residues as written; N and C are the ends. Peptide text beside a SMILES is read from it. I, II: the chains in the order shown. OSi(nPr)2O = CCC[Si](CCC)(O[*:1])O[*:2]

How the values were obtained:
[1] = tested on: Krebszellen; assay: Effect of sugar silanes on cancer cells; format: cell-based
[2] = tested on: Kälber-Aortenendothelzellinie BKEz-7; assay: tissue or blood; format: cell-based
[3] = tested on: Kälber-Aortenendothelzellinie BKEz-7; assay: Neutral red vitality test; format: cell-based; settings: compared with the cytotoxicity test
Procedure: Als Marker für eine zytotoxische Wirkung wird bei Zellen der charakterisierten Kälber-Aortenendothelzellinie BKEz-7 die Hemmkonzentration ermittelt, bei der eine 50%-ige Hemmung der Zellproliferation erfolgt (im Vergleich zu Kontrollkulturen ohne Zusatz eines Zellinhibitors). Die resultierende Reduzierung der Zellzahl um 50% wird als IC 50 ausgedrückt. Die getesteten Silanverbindungen wurden als Suspensionen auf die Kulturen gegeben und 48 Stunden bei 37°C inkubiert. Zusätzlich erfolgten morphologische Kontrollen und Vitalitätsbestimmungen mittels dem Neutralrot-Test. Mit Ausnahme des Di(dodecanoyloxy)dimethylsilans standen alle Ergebnisse der morphologischen Untersuchungen in guter Übereinstimmung. […]

[4] = tested on: Maus; assay: Pharmacological observation in the mouse (central, vegetative and toxic effects, acute toxicity); format: in vivo
Summary of the method: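 Mice given single doses of 5·10^-4, 1·10^-3 and 5·10^-3 mol/kg body weight and observed individually. Recorded: orienting lethal dose (oLD), motor activity, reactivity, skin and rectal temperature, and pupil motility.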

[5] = tested on: Osteosarkome; assay: Effect on osteosarcomas
[6] = tested on: Seminome
[7] = tested on: Plasmozyten; assay: Effect against plasmocytes
[8] = tested on: Hepatitis A-Viren; assay: Antiviral effect; settings: in particular as vesicles holding antisense constructs
[9] = tested on: Plattenepithelkarzinome; assay: Effect on squamous cell carcinomas
[10] = tested on: Lymphome; assay: Effect on lymphomas
[11] = tested on: Medulloblastome; assay: Effect on medulloblastomas
[12] = tested on: HIV-Vren; assay: Antiviral effect; settings: in particular as vesicles holding antisense constructs
[13] = tested on: Entero-Viren; assay: Antiviral effect; settings: in particular as vesicles holding antisense constructs
[14] = tested on: Basalzellkarzinome; assay: Effect on basal cell carcinomas

CCCCCCCCCCCC[Si](C)(C)O[C@@H]1O[C@H](COC(C)=O)[C@@H](OC(C)=O)[C@H](OC(C)=O)[C@H]1OC(C)=O [Silan 12, 1-O-Dimethyl(dodecyl)silyl-2,3,4,6-tetra-0-acetyl-ß-D-glucopyrasonid]
Wirkung auf Krebszellen [1]: zeigen ebenfalls eine Wirkung

CCCCCCCCCCCCCCCCCC[Si](C)(C)O[C@@H]1O[C@H](COC(C)=O)[C@@H](OC(C)=O)[C@H](OC(C)=O)[C@H]1OC(C)=O [1-O-Dimethyl(octadecyl)silyl-2,3,4,6-tetr'a-0-acteyl-ß-D-glucopyranosid]
Wirkung auf Krebszellen [1]: zeigen ebenfalls eine Wirkung

CCCCCCCCCCCC(=O)O[Si](C)(C)OC(=O)CCCCCCCCCCC [Di(dodecanoyloxy)dimethylsilan]
Bedenkliche Toxizität [2]: - | IC50 ([2]; suspensions, 48 Stunden bei 37°C): 129 µM | Vitalitätsbeeinflussungen im Neutralrot-Test [3]: geringere Vitalitätsbeeinflussungen als im Zytotoxizitätstest | zentrale, vegetative und toxische Effekte (Verhaltensänderungen) ([4]; 1•10^-3 mol/kg): keine Verhaltensänderungen | zentrale, vegetative und toxische Effekte (Verhaltensänderungen) ([4]; 5•10^-3 mol/kg): Ataxie, Ploerektion, Griffstärkesenkung | zentrale, vegetative und toxische Effekte (Verhaltensänderungen) ([4]; 5•10^-4 mol/kg): keine Verhaltensänderungen | Wirkung auf Osteosarkome [5]: zeigen eine Wirkung

CC[Si](CC)(OC(=O)[C@@H](NC(=O)[C@@H](NC(=O)[C@@H](N)C(C)C)C(C)C)C(C)C)OC(=O)[C@@H](NC(=O)[C@@H](NC(=O)[C@@H](N)C(C)C)C(C)C)C(C)C [Diethyl bis(trivalyl)silylester]
Wirkung auf Seminome [6]: zeigen eine Wirkung

CCC[Si](CCC)(OC(=O)[C@H](Cc1ccccc1)NC(=O)[C@H](Cc1ccccc1)NC(=O)[C@H](Cc1ccccc1)NC(=O)[C@H](Cc1ccccc1)NC(=O)[C@H](Cc1ccccc1)NC(=O)[C@H](Cc1ccccc1)NC(=O)[C@@H](N)Cc1ccccc1)OC(=O)[C@H](Cc1ccccc1)NC(=O)[C@H](Cc1ccccc1)NC(=O)[C@H](Cc1ccccc1)NC(=O)[C@H](Cc1ccccc1)NC(=O)[C@H](Cc1ccccc1)NC(=O)[C@H](Cc1ccccc1)NC(=O)[C@@H](N)Cc1ccccc1 [Dipropyl bis(heptaphenylalanyl)silylester] (I: H-FFFFFFF / II: H-FFFFFFF; linker I:C-II:C via OSi(nPr)2O)
Wirkung gegen Plasmozyten [7]: zeigen eine Wirkung | Wirkung gegen Hepatitis A-Viren [8]: zeigen eine Wirkung

CCC[Si](CCC)(OC(=O)[C@H](C)NC(=O)[C@H](C)NC(=O)[C@H](C)NC(=O)[C@H](C)N)OC(=O)[C@H](C)NC(=O)[C@H](C)NC(=O)[C@H](C)NC(=O)[C@H](C)N [Dipropyl bis(tetraalanyl)silylester] (I: H-AAAA / II: H-AAAA; linker I:C-II:C via OSi(nPr)2O)
Wirkung gegen Plattenepithelkarzinome [9]: zeigen eine Wirkung

CCCCCCCC/C=C\CCCCCCCC(=O)O[Si](OC(=O)CCCCCCC/C=C\CCCCCCCC)(C(C)C)C(C)C
Wirkung auf Lymphome [10]: zeigen eine Wirkung | Wirkung gegen Medulloblastome [11]: zeigen eine Wirkung | Wirkung gegen HIV-Vren [12]: zeigen eine Wirkung | Wirkung gegen Entero-Viren [13]: zeigen eine Wirkung

C[Si](C)(OC(=O)[C@H](Cc1ccccc1)NC(=O)[C@H](Cc1ccccc1)NC(=O)[C@H](Cc1ccccc1)NC(=O)[C@H](Cc1ccccc1)NC(=O)[C@@H](N)Cc1ccccc1)OC(=O)[C@H](Cc1ccccc1)NC(=O)[C@H](Cc1ccccc1)NC(=O)[C@H](Cc1ccccc1)NC(=O)[C@H](Cc1ccccc1)NC(=O)[C@@H](N)Cc1ccccc1 [Dimethyl bis(pentaphenylalanyl)silylester]
Wirkung auf Basalzellkarzinome [14]: zeigen eine Wirkung
